Tests used:
[1] = system: ALOMY; assay: Pre-emergence herbicidal action against ALOMY; assay type: in vivo, Alopecurus myosuroides; conditions: pre-emergence; for pest or weed control at 80 g/ha / pest or weed control at 20 g/ha: Alopecurus myosuroides, 504 h; for pest or weed control at 20 g/ha: scored visually after 3 weeks, 100% = plants have died, 0% = like control plants
Procedure, shortened: (§1)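 Greenhouse pots of sandy loam held seeds covered with soil, onto which the compound was applied before emergence. An aqueous suspension or emulsion of WP or EC was used at 600 to 800 l/ha with 0.2% wetting agent. Percent damage was judged visually at 3 weeks.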

[2] = system: POLCO; assay: Pre-emergence herbicidal action against POLCO; assay type: in vivo, Polygonum convolvulus
Procedure, shortened: as §1

[3] = system: AMARE; assay: Pre-emergence herbicidal action against AMARE; assay type: in vivo, Amaranthus retroflexus; conditions: for pest or weed control at 20 g/ha / pest or weed control at 80 g/ha: Amaranthus retroflexus, 504 h
Procedure, shortened: as §1

[4] = system: MATIN; assay: Post-emergence herbicidal action against MATIN; assay type: in vivo, Matricaria inodora; conditions: for pest or weed control at 5 g/ha / pest or weed control at 20 g/ha: Tripleurospermum inodorum, 504 h; for pest or weed control at 5 g/ha: dosage 5 g/ha
Procedure, shortened: (§2)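 Foliar application at one-leaf stage of formulated test compounds, aqueous spray at 600–800 l/ha with 0.2% wetting agent. Greenhouse, optimal conditions, ~3 weeks; damage scored visually in % relative to untreated plants.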

[5] = system: DIGSA; assay: Post-emergence herbicidal action against DIGSA; assay type: in vivo, Digitaria sanguinalis; conditions: for pest or weed control at 5 g/ha / pest or weed control at 20 g/ha: Digitaria sanguinalis, 504 h
Procedure, shortened: as §2

[6] = system: PHBPU; assay: Pre-emergence herbicidal action against PHBPU; assay type: in vivo, Pharbitis purpurea; conditions: dosage 80 g/ha; for pest or weed control at 80 g/ha: Ipomoea purpurea, 504 h
Procedure, shortened: as §1

[7] = system: ABUTH; assay: Post-emergence herbicidal action against ABUTH; assay type: in vivo, Abutilon theophrasti; conditions: visual assessment about 3 weeks after treatment vs untreated controls
Procedure, shortened: as §2

[8] = system: ECHCG; assay: Post-emergence herbicidal action against ECHCG; assay type: in vivo, Echinochloa crus-galli; conditions: dosage 20 g/ha
Procedure, shortened: as §2

[9] = system: AVEFA; assay: Pre-emergence herbicidal action against AVEFA; assay type: in vivo, Avena fatua; conditions: 80 g/ha, pre-emergence; for pest or weed control at 80 g/ha: Avena fatua, 504 h
Procedure, shortened: as §1

[10] = system: AMARE; assay: Post-emergence herbicidal action against AMARE; assay type: in vivo, Amaranthus retroflexus; conditions: 20 g/ha, visual assessment about 3 weeks after treatment, 100% = plants have died, 0% = like control plants; for pest or weed control at 20 g/ha: Amaranthus retroflexus, 504 h
Procedure, shortened: as §2

[11] = system: ALOMY; assay: Post-emergence herbicidal action against ALOMY; assay type: in vivo, Alopecurus myosuroides; conditions: dosage 20 g/ha, visual assessment about 3 weeks after treatment vs untreated controls; for pest or weed control at 20 g/ha: Alopecurus myosuroides, 504 h
Procedure, shortened: as §2

[12] = system: ECHCG; assay: Pre-emergence herbicidal action against ECHCG; assay type: in vivo, Echinochloa crus-galli; conditions: 80 g/ha; for pest or weed control at 80 g/ha: Echinochloa crus-galli, 504 h
Procedure, shortened: as §1

[13] = system: SETVI; assay: Pre-emergence herbicidal action against SETVI; assay type: in vivo, Setaria viridis
Procedure, shortened: as §1

[14] = system: MATIN; assay: Pre-emergence herbicidal action against MATIN; assay type: in vivo, Matricaria inodora; conditions: for pest or weed control at 20 g/ha / pest or weed control at 80 g/ha: Tripleurospermum inodorum, 504 h
Procedure, shortened: as §1

[15] = system: DIGSA; assay: Pre-emergence herbicidal action against DIGSA; assay type: in vivo, Digitaria sanguinalis; conditions: for pest or weed control at 20 g/ha / pest or weed control at 80 g/ha: Digitaria sanguinalis, 504 h
Procedure, shortened: as §1

[16] = system: VIOTR; assay: Pre-emergence herbicidal action against VIOTR; assay type: in vivo, Viola tricolor; conditions: for pest or weed control at 20 g/ha / pest or weed control at 80 g/ha: Viola tricolor, 504 h
Procedure, shortened: as §1

[17] = system: ABUTH; assay: Pre-emergence herbicidal action against ABUTH; assay type: in vivo, Abutilon theophrasti; conditions: for pest or weed control at 80 g/ha / pest or weed control at 20 g/ha: Abutilon theophrasti, 504 h; for pest or weed control at 20 g/ha: read-out: Pre-emergence action against ABUTH (herbicidal activity in percent)
Procedure, shortened: as §1

[18] = system: PHBPU; assay: Post-emergence herbicidal action against PHBPU; assay type: in vivo, Pharbitis purpurea
Procedure, shortened: as §2

[19] = system: VERPE; assay: Post-emergence herbicidal action against VERPE; assay type: in vivo, Veronica persica
Procedure, shortened: as §2

[20] = system: VERPE; assay: Pre-emergence herbicidal action against VERPE; assay type: in vivo, Veronica persica; conditions: for pest or weed control at 80 g/ha: Veronica persica, 504 h
Procedure, shortened: as §1

[21] = system: SETVI; assay: Post-emergence herbicidal action against SETVI; assay type: in vivo, Setaria viridis; conditions: Setaria viridis, 504 h; for pest or weed control at 5 g/ha: dosage 5 g/ha; for pest or weed control at 20 g/ha: dosage 20 g/ha
Procedure, shortened: as §2

[22] = system: VIOTR; assay: Post-emergence herbicidal action against VIOTR; assay type: in vivo, Viola tricolor; conditions: Viola tricolor, 504 h
Procedure, shortened: as §2

[23] = 80 g/ha, scored visually after 3 weeks vs untreated controls (100% = plants have died, 0% = like control plants)
[24] = 20 g/ha, scored visually after 3 weeks vs untreated controls, 100% = plants have died, 0% = like control plants
[25] = dosage 20 g/ha, scored visually after 3 weeks vs untreated controls, 100% = plants have died, 0% = like control plants
[26] = Fallopia convolvulus, 504 h, dosage 80 g/ha
[27] = 80 g/ha, scored visually after 3 weeks vs untreated controls, 100% = plants have died, 0% = like control plants
[28] = Abutilon theophrasti, 504 h, dosage 20 g/ha
[29] = Setaria viridis, 504 h, dosage 80 g/ha
[30] = Ipomoea purpurea, 504 h, dosage 20 g/ha
[31] = Veronica persica, 504 h, 20 g/ha

With `CC(NC(=O)c1c(C(F)F)ccc(C(=O)Nc2nnnn2C)c1Br)C1CC1` (centres unmarked) [Example 1-340] the “Pre-emergence action against ALOMY (herbicidal activity)” value [1, 23] was 90%, the “Pre-emergence action against POLCO in %” value ([2]; dosage 80 g/ha) was 90% and the “Pre-emergence action against AMARE in %” value [3, 24] was 100%. For the same compound, the “Pre-emergence action against AMARE in %” value [3, 23] was 100%, the “Post-emergence action against MATIN in %” value ([4]; dosage 20 g/ha) was 80% and the “Post-emergence action against DIGSA” value ([5]; 20 g/ha) was 90%. For the same compound, the “Pre-emergence action against PHBPU in %” value [6] was 90%, the “Post-emergence action against ABUTH in %” value ([7]; dosage 20 g/ha) was 80% and the “Post-emergence action against ECHCG in %” value [8] was 90%. For the same compound, the “Pre-emergence action against AVEFA in %” value [9] was 80%, the “Post-emergence action at 20 g/ha against AMARE in %” value [10] was 90% and the “Post-emergence action against ALOMY in %” value [11] was 80%. The “Pre-emergence action against ECHCG in %” value [12] was 100%, the “Pre-emergence action against SETVI in %” value ([13]; dosage 20 g/ha) was 90% and the “Pre-emergence action against SETVI in %” value ([13]; dosage 80 g/ha) was 100%. For the same compound, the “Pre-emergence action against MATIN in %” value ([14]; dosage 20 g/ha) was 100%, the “Pre-emergence action against MATIN in %” value ([14]; dosage 80 g/ha) was 100% and the “Pre-emergence action against DIGSA in %” value ([15]; dosage 20 g/ha) was 100%. The “Pre-emergence action against DIGSA in %” value ([15]; dosage 80 g/ha) was 100%, the “Pre-emergence action against VIOTR in %” value ([16]; dosage 20 g/ha) was 100% and the “Pre-emergence action against VIOTR in %” value ([16]; dosage 80 g/ha) was 100%. For the same compound, the “Pre-emergence action against ABUTH (herbicidal activity)” value [17, 23] was 100%, the “Pre-emergence action against ABUTH (herbicidal activity in percent)” value [17, 25] was 100% and the “Post-emergence action against PHBPU in %” value ([18]; dosage 20 g/ha) was 90%. For the same compound, the “Post-emergence action against VERPE in %” value ([19]; 20 g/ha) was 80%, the “Pre-emergence action against VERPE in %” value ([20]; dosage 20 g/ha) was 100% and the “Pre-emergence action against VERPE in %” value ([20]; dosage 80 g/ha) was 100%.

For `CCn1nnnc1NC(=O)c1ccc(C(F)(F)F)c(C(=O)NC)c1Br` [Example 2-207], the pest or weed control at 80 g/ha [1, 23] was 90%, the pest or weed control at 20 g/ha [1] was 80% and the pest or weed control at 80 g/ha [2, 26] was 90%. It also gave a pest or weed control at 20 g/ha [3, 24] of 100%, a pest or weed control at 80 g/ha [3, 27] of 100% and a pest or weed control at 5 g/ha [4] of 80%. It also gave a pest or weed control at 20 g/ha ([4]; dosage 20 g/ha) of 90%, a pest or weed control at 5 g/ha [5] of 80% and a pest or weed control at 20 g/ha ([5]; 20 g/ha) of 100%. It also gave a pest or weed control at 80 g/ha [6] of 80%, a pest or weed control at 20 g/ha [7, 28] of 90% and a pest or weed control at 5 g/ha [21] of 90%. It also gave a pest or weed control at 20 g/ha [21] of 100%, a pest or weed control at 80 g/ha [9] of 90% and a pest or weed control at 20 g/ha [10] of 100%. It also gave a pest or weed control at 5 g/ha [22] of 100%, a pest or weed control at 20 g/ha [22] of 100% and a pest or weed control at 20 g/ha [11] of 90%. The pest or weed control at 80 g/ha [12] was 100%, the pest or weed control at 20 g/ha ([13]; Setaria viridis, 504 h, dosage 20 g/ha) was 100% and the pest or weed control at 80 g/ha [13, 29] was 100%. The pest or weed control at 20 g/ha ([14]; dosage 20 g/ha) was 90%, the pest or weed control at 80 g/ha ([14]; dosage 80 g/ha) was 100% and the pest or weed control at 20 g/ha ([15]; dosage 20 g/ha) was 90%. For the same compound, the pest or weed control at 80 g/ha ([15]; dosage 80 g/ha) was 100%, the pest or weed control at 20 g/ha ([16]; dosage 20 g/ha) was 90% and the pest or weed control at 80 g/ha ([16]; dosage 80 g/ha) was 100%. For the same compound, the pest or weed control at 80 g/ha [17, 23] was 100%, the pest or weed control at 20 g/ha [17, 25] was 100% and the pest or weed control at 20 g/ha [18, 30] was 80%. It also gave a pest or weed control at 5 g/ha ([19]; Veronica persica, 504 h, 5 g/ha) of 80%, a pest or weed control at 20 g/ha [19, 31] of 90% and a pest or weed control at 80 g/ha ([20]; dosage 80 g/ha) of 90%.

Work on `CCNC(=O)c1c(C(F)F)ccc(C(=O)Nc2nnnn2CC)c1CC` [Example 2-278] yielded a pest or weed control at 80 g/ha [1, 23] of 90%, a pest or weed control at 20 g/ha [1] of 80% and a pest or weed control at 20 g/ha ([2]; Fallopia convolvulus, 504 h, dosage 20 g/ha) of 80%. For the same compound, the pest or weed control at 80 g/ha [2, 26] was 80%, the pest or weed control at 20 g/ha [3, 24] was 100% and the pest or weed control at 80 g/ha [3, 27] was 100%. The pest or weed control at 5 g/ha [4] was 90%, the pest or weed control at 20 g/ha ([4]; dosage 20 g/ha) was 90% and the pest or weed control at 5 g/ha [5] was 90%. For the same compound, the pest or weed control at 20 g/ha ([5]; 20 g/ha) was 90%, the pest or weed control at 80 g/ha [6] was 90% and the pest or weed control at 5 g/ha ([7]; Abutilon theophrasti, 504 h, dosage 5 g/ha) was 80%. The pest or weed control at 20 g/ha [7, 28] was 90%, the pest or weed control at 20 g/ha ([8]; Echinochloa crus-galli, 504 h) was 90% and the pest or weed control at 5 g/ha [21] was 80%. It also gave a pest or weed control at 20 g/ha [21] of 90%, a pest or weed control at 80 g/ha [9] of 90% and a pest or weed control at 20 g/ha [10] of 100%. The pest or weed control at 5 g/ha [22] was 90%, the pest or weed control at 20 g/ha [22] was 90% and the pest or weed control at 20 g/ha [11] was 80%. For the same compound, the pest or weed control at 80 g/ha [12] was 100%, the pest or weed control at 80 g/ha [13, 29] was 100% and the pest or weed control at 20 g/ha ([14]; dosage 20 g/ha) was 100%. For the same compound, the pest or weed control at 80 g/ha ([14]; dosage 80 g/ha) was 100%, the pest or weed control at 20 g/ha ([15]; dosage 20 g/ha) was 100% and the pest or weed control at 80 g/ha ([15]; dosage 80 g/ha) was 100%. It also gave a pest or weed control at 20 g/ha ([16]; dosage 20 g/ha) of 100%, a pest or weed control at 80 g/ha ([16]; dosage 80 g/ha) of 100% and a pest or weed control at 80 g/ha [17, 23] of 100%. For the same compound, the pest or weed control at 20 g/ha [17, 25] was 100%, the pest or weed control at 5 g/ha ([18]; Ipomoea purpurea, 504 h, dosage 5 g/ha) was 80% and the pest or weed control at 20 g/ha [18, 30] was 90%. The pest or weed control at 20 g/ha [19, 31] was 100% and the pest or weed control at 80 g/ha ([20]; dosage 80 g/ha) was 100%.
